According to US5663331A, “Cephalosporin compounds” (Il-Dong Pharm. Co., Ltd., priority 1992, dated 1997):
In brackets after ≈: the same amount, converted by molar mass.

Tests used:
Assay type in all cases: cell-based
[1] = tested on: Bacillus subtilis ATCC 6633; test: MIC, two-fold dilution method, Bacillus subtilis ATCC 6633; conditions: 10^6 CFU per ml, 37° C., 18 to 20 hours; for MIC: ATCC6633, Muller Hinton Broth, read-out: Antibacterial Activity (MIC); for Antibacterial Activity (MIC): Muller Hinton Broth
Method: (§1) In order to illustrate the usefulness of the invented compounds, the minimal inhibitory concentrations-(MIC) thereof against standard strains were determined and compared with Cefotaxime, a known compound. Also, the in vitro antibacterial activity was determined by a two-fold dilution method as described below: That is, the two-fold serial dilutions of the compound were made and dispersed in Muller Hinton Broth medium. Standard test strain which had the 10^6 CFU per ml was inoculated on the medium, and was incubated at 37° C. for 18 to 20 hours.

[2] = tested on: Staphylococcus aureus ATCC 65389; test: MIC, two-fold dilution method, Staphylococcus aureus ATCC 65389; conditions: 10^6 CFU per ml, 37° C., 18 to 20 hours; for MIC: ATCC65389, Muller Hinton Broth, read-out: Antibacterial Activity (MIC); for Antibacterial Activity (MIC): Muller Hinton Broth
Method: as §1

[3] = tested on: Staphylococcus epidermidis ATCC 12228; test: MIC, two-fold dilution method, Staphylococcus epidermidis ATCC 12228; conditions: 10^6 CFU per ml, 37° C., 18 to 20 hours; for MIC: ATCC12228, Muller Hinton Broth, read-out: Antibacterial Activity (MIC); for Antibacterial Activity (MIC): Muller Hinton Broth
Method: as §1

[4] = tested on: Streptococcus faecalis ATCC 10541; test: MIC, two-fold dilution method, Streptococcus faecalis ATCC 10541; conditions: 10^6 CFU per ml, 37° C., 18 to 20 hours; for MIC: Enterococcus faecalis, ATCC10541, Muller Hinton Broth, read-out: Antibacterial Activity (MIC); for Antibacterial Activity (MIC): Muller Hinton Broth
Method: as §1

[5] = tested on: Pseudomonas aeurginosa NCTC 10490; test: MIC, two-fold dilution method, Pseudomonas aeurginosa NCTC 10490; conditions: 10^6 CFU per ml, 37° C., 18 to 20 hours; for MIC: NCTC10490, Muller Hinton Broth, read-out: Antibacterial Activity (MIC); for Antibacterial Activity (MIC): Muller Hinton Broth
Method: as §1

[6] = tested on: Esherichia coli ATCC 25922; test: MIC, two-fold dilution method, Esherichia coli ATCC 25922; conditions: Muller Hinton Broth, 10^6 CFU per ml, 37° C., 18 to 20 hours, read-out: Antibacterial Activity (MIC)
Method: as §1

[7] = tested on: Klebsiella pneumoniae ATCC 10031; test: MIC, two-fold dilution method, Klebsiella pneumoniae ATCC 10031; conditions: 10^6 CFU per ml, 37° C., 18 to 20 hours; for MIC: ATCC10031, Muller Hinton Broth, read-out: Antibacterial Activity (MIC); for Antibacterial Activity (MIC): Muller Hinton Broth
Method: as §1

Structure (SMILES)	MIC [1]	MIC [2]	MIC [3]	MIC [4]	MIC [5]	MIC [6]	MIC [7]	Antibacterial Activity (MIC) [1]	Antibacterial Activity (MIC) [2]	Antibacterial Activity (MIC) [3]	Antibacterial Activity (MIC) [4]	Antibacterial Activity (MIC) [5]	Antibacterial Activity (MIC) [7]
CCN1CCN(c2cc3c(cc2F)c(SCC2=C(C(=O)[O-])N4C(=O)C(NC(=O)/C(=N\OC(C)(C)C(=O)O)c5csc(N)n5)C4SC2)cc[n+]3CC)CC1 (stereo not drawn) [Compound I-61, 7-[(Z)-2-(2-aminothiazol-4-yl)-2-(2-carboxyprop-2-oxyimino)acetamido]-3-[1-ethyl-6-fluoro-7-(1-ethylpiperazinyl)quinolinium-4-yl]thiomethyl-3-cephem-4-carboxylate]	3.13 µg/mL (≈ 3.98 µM)	1.56 µg/mL (≈ 1.98 µM)	1.56 µg/mL (≈ 1.98 µM)	0.39 µg/mL (≈ 0.496 µM)	1.56 µg/mL (≈ 1.98 µM)	3.13 µg/mL (≈ 3.98 µM)	3.13 µg/mL (≈ 3.98 µM)						
C=CC[n+]1ccc(SCC2=C(C(=O)[O-])N3C(=O)C(NC(=O)/C(=N\OC)c4csc(N)n4)[C@H]3SC2)c2cc(F)c(N3CCNCC3)cc21 (stereo partly drawn) [Compound I-13, 7-[(Z)-2-(2-aminothiazol-4-yl)-2-(methoxyimino)acetamido]-3-(1-allyl-6-fluoro-7-piperazinylquinolinium-4-yl)thiomethyl-3-cephem-4-carboxylate]	0.39 µg/mL (≈ 0.558 µM)	1.56 µg/mL (≈ 2.23 µM)	1.56 µg/mL (≈ 2.23 µM)	0.78 µg/mL (≈ 1.12 µM)	1.56 µg/mL (≈ 2.23 µM)	3.13 µg/mL (≈ 4.48 µM)	0.78 µg/mL (≈ 1.12 µM)						
C#CCO/N=C(\C(=O)NC1C(=O)N2C(C(=O)[O-])=C(CSc3cc[n+](CC=C)c4cc(N5CCNCC5)c(F)cc34)CS[C@H]12)c1csc(N)n1 (stereo partly drawn) [Compound I-49, 7-[(Z)-2-(2-aminothiazol-4-yl)-2-(propargyloxyimino)acetamido]-3-(1-allyl-6-fluoro-7-piperazinylquinolinium-4-yl)thiomethyl-3-cephem-4-carboxylate]	0.39 µg/mL (≈ 0.54 µM)	1.56 µg/mL (≈ 2.16 µM)	1.56 µg/mL (≈ 2.16 µM)	0.78 µg/mL (≈ 1.08 µM)	1.56 µg/mL (≈ 2.16 µM)	1.56 µg/mL (≈ 2.16 µM)	1.56 µg/mL (≈ 2.16 µM)						
C#CCO/N=C(\C(=O)NC1C(=O)N2C(C(=O)[O-])=C(CSc3cc[n+](C)c4cc(N5CCNCC5)c(F)cc34)CS[C@H]12)c1csc(N)n1 (stereo partly drawn) [Compound I-37, 7-[(Z)-2-(2-aminothiazol-4-yl)-2-(propargyloxyimino)acetamido]-3-(1-methyl-6-fluoro-7-piperazinylquinolinium-4-yl)thiomethyl-3-cephem-4-carboxylate]	0.2 µg/mL (≈ 0.287 µM)	0.39 µg/mL (≈ 0.56 µM)	0.78 µg/mL (≈ 1.12 µM)	0.2 µg/mL (≈ 0.287 µM)	0.2 µg/mL (≈ 0.287 µM)		0.78 µg/mL (≈ 1.12 µM)						
CC[n+]1ccc(SCC2=C(C(=O)[O-])N3C(=O)C(NC(=O)/C(=N\OC(C)(C)C(=O)O)c4csc(N)n4)[C@H]3SC2)c2cc(F)c(N3CCNCC3)cc21 (stereo partly drawn) [Compound I-53, 7-[(Z)-2-(2-aminothiazol-4-yl)-2-(2-carboxyprop-2-oxyimino)acetamido]-3-(1-ethyl-6-fluoro-7-piperazinylquinolinium-4-yl)thiomethyl-3-cephem-4-carboxylate]								0.39 µg/mL	3.13 µg/mL	1.56 µg/mL	0.39 µg/mL	1.56 µg/mL	1.56 µg/mL
CO/N=C(\C(=O)NC1C(=O)N2C(C(=O)[O-])=C(CSc3cc[n+](C)c4cc(-n5cnc(C)c5)c(F)cc34)CSC12)c1csc(N)n1 (stereo not drawn) [Compound I-18, 7-[(Z)-2-(2-aminothiazol-4-yl)-2-(methoxyimino)acetamido]-3-[1-methyl-6-fluoro-7-(4-methylimidazolyl)quinolinium-4-yl]thiomethyl-3-cephem-4-carboxylate]								0.1 µg/mL	0.2 µg/mL	0.2 µg/mL	0.2 µg/mL	1.56 µg/mL	
C#CCO/N=C(\C(=O)NC1C(=O)N2C(C(=O)[O-])=C(CSc3cc[n+](C)c4cc(N5CCNCC5C)c(F)cc34)CS[C@H]12)c1csc(N)n1 (stereo partly drawn) [Compound I-40, 7-[(Z)-2-(2-aminothiazol-4-yl)-2-(propargyloxyimino)acetamido]-3-[1-methyl-6-fluoro-7-(2-methylpiperazinyl)quinolinium-4-yl]thiomethyl-3-cephem-4-carboxylate]								0.2 µg/mL	0.39 µg/mL	0.1 µg/mL	0.2 µg/mL	0.2 µg/mL	0.78 µg/mL
CC[n+]1ccc(SCC2=C(C(=O)[O-])N3C(=O)C(NC(=O)/C(=N\OC(C)(C)C(=O)O)c4csc(N)n4)[C@H]3SC2)c2cc(F)c(-n3ccnc3)cc21 (stereo partly drawn) [Compound I-65, 7-[(Z)-2-(2-aminothiazol-4-yl)-2-(2-carboxyprop-2-oxyimino)acetamido]-3-(1-ethyl-6-fluoro-7-imidazolylquinolinium-4-yl)thiomethyl-3-cephem-4-carboxylate]								0.39 µg/mL	1.56 µg/mL	1.56 µg/mL	0.39 µg/mL	1.56 µg/mL	1.56 µg/mL

Next, values leading:

MIC [1]	MIC [2]	MIC [3]	MIC [4]	MIC [5]	MIC [6]	MIC [7]	Antibacterial Activity (MIC) [1]	Antibacterial Activity (MIC) [2]	Antibacterial Activity (MIC) [3]	Antibacterial Activity (MIC) [4]	Antibacterial Activity (MIC) [5]	Antibacterial Activity (MIC) [7]	Structure (SMILES)
0.78 µg/mL (≈ 1.06 µM)	3.13 µg/mL (≈ 4.25 µM)	3.13 µg/mL (≈ 4.25 µM)	1.56 µg/mL (≈ 2.12 µM)	3.13 µg/mL (≈ 4.25 µM)	3.13 µg/mL (≈ 4.25 µM)	3.13 µg/mL (≈ 4.25 µM)							C#CCO/N=C(\C(=O)NC1C(=O)N2C(C(=O)[O-])=C(CSc3cc[n+](CC=C)c4cc(N5CCN(C)CC5)c(F)cc34)CSC12)c1csc(N)n1 (stereo not drawn) [Compound I-50, 7-[(Z)-2-(2-aminothiazol-4-yl)-2-(propargyloxyimino)acetamido]-3-[1-allyl-6-fluoro-7-(N-methylpiperazinyl)quinolinium-4-yl]thiomethyl-3-cephem-4-carboxylate]
0.2 µg/mL (≈ 0.276 µM)	0.39 µg/mL (≈ 0.538 µM)	0.2 µg/mL (≈ 0.276 µM)	0.2 µg/mL (≈ 0.276 µM)	0.2 µg/mL (≈ 0.276 µM)		0.78 µg/mL (≈ 1.08 µM)							C#CCO/N=C(\C(=O)NC1C(=O)N2C(C(=O)[O-])=C(CSc3cc[n+](C)c4cc(N5CCN(CC)CC5)c(F)cc34)CSC12)c1csc(N)n1 (stereo not drawn) [Compound I-39]
0.78 µg/mL (≈ 1.1 µM)	0.78 µg/mL (≈ 1.1 µM)	0.39 µg/mL (≈ 0.549 µM)	0.2 µg/mL (≈ 0.281 µM)	0.78 µg/mL (≈ 1.1 µM)		3.13 µg/mL (≈ 4.4 µM)							C#CCO/N=C(\C(=O)NC1C(=O)N2C(C(=O)[O-])=C(CSc3cc[n+](C)c4cc(N5CCN(C)CC5)c(F)cc34)CSC12)c1csc(N)n1 (stereo not drawn) [Compound I-38, 7-[(Z)-2-(2-aminothiazol-4-yl)-2-(propargyloxyimino)acetamido]-3-[1-methyl-6-fluoro-7-(N-methylpiperazinyl)quinolinium-4-yl]thiomethyl-3-cephem-4-carboxylate]
							0.39 µg/mL	0.2 µg/mL	0.2 µg/mL	0.2 µg/mL	1.56 µg/mL	0.78 µg/mL	C=CCO/N=C(\C(=O)NC1C(=O)N2C(C(=O)[O-])=C(CSc3cc[n+](C4CC4)c4cc(N5CCNCC5C)c(F)cc34)CS[C@H]12)c1csc(N)n1 (stereo partly drawn) [Compound I-28, 7-[(Z)-2-(2-aminothiazol-4-yl)-2-(allyloxyimino)acetamido]-3-[1-cyclopropyl-6-fluoro-7-(2-methylpiperazinyl)quinolinium-4-yl]thiomethyl-3-cephem-4-carboxylate]
0.2 µg/mL (≈ 0.266 µM)	0.2 µg/mL (≈ 0.266 µM)	0.2 µg/mL (≈ 0.266 µM)	0.2 µg/mL (≈ 0.266 µM)	0.78 µg/mL (≈ 1.04 µM)		0.39 µg/mL (≈ 0.518 µM)							C=CCO/N=C(\C(=O)NC1C(=O)N2C(C(=O)[O-])=C(CSc3cc[n+](C4CC4)c4cc(N5CCN(CC)CC5)c(F)cc34)CSC12)c1csc(N)n1 (stereo not drawn) [Compound I-27]
